Target: human PAD4 (hPAD4) (Homo sapiens, UniProt Q9UM07)
Test: RFMS human PAD4 functional assay (rapid-fire mass spectrum)
Format: biochemical
Conditions: 5 nM hPAD4 enzyme, 250 μM BAEE, 50 μM Calcium; 30 min preincubation, 90 min reaction at 37° C.
Method in brief: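 PAD4 (10 nM) preincubated 30 min with compound (top final 50 μM), then BAEE substrate added in pH 7.5 HEPES buffer with DTT, 50 μM calcium, TPEN; 90 min at 37° C. After TCA quench, citrulline derivatized with phenyl glyoxal (4 mM final, 30 min, 37° C) and quantified by RapidFire MS against internal standard.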

human PAD4 (hPAD4), sequence (Q9UM07 whole entry): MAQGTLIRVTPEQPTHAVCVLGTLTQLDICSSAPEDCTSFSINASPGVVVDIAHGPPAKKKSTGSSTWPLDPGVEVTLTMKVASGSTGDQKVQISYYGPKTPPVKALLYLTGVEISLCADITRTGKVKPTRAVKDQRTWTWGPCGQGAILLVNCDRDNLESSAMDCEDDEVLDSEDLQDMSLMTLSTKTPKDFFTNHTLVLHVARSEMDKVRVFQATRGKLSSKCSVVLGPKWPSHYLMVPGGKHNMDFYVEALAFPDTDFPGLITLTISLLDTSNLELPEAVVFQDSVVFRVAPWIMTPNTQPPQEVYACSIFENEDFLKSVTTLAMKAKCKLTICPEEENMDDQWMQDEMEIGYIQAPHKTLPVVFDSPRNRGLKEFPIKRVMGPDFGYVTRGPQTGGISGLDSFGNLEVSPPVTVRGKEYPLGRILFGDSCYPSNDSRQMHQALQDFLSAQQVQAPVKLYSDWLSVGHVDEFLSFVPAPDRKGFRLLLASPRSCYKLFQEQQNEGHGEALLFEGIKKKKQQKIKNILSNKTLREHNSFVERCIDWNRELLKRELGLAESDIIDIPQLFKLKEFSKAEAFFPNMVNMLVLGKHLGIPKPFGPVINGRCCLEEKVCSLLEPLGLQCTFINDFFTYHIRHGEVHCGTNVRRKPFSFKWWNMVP

IC50 [nM]	SMILES
36	N[C@@H]1C2CCC1N(C(=O)c1cc(F)c3c(c1)nc(-c1cc4cccnc4n1CC1CC1)n3CC1CN(C(=O)c3ccccc3)C1)C2 (stereo partly drawn) [Example 439, (7R)-2-{1-[(1-benozylazetidin-3-yl)methyl]-2-[1-(cyclopropylmethyl)-1H-pyrrolo[2,3-b]pyridin-2-yl]-7-fluoro-1H-1,3-benzodiazol-5-carbonyl}-2-azabicyclo[2.2.1]heptan-7-amine]
93	COc1cc(C(=O)N2C[C@H]3CC[C@@H]2[C@@H]3N)cc2nc(-c3cc4cccnc4n3CC3CC3)n(CC3CN(c4ncncc4C#N)C3)c12 [Example 37, 4-[3-({5-[(1R,4R,7R)-7-amino-2-azabicyclo[2.2.1]heptane-2-carbonyl]-2-[1-(cyclopropylmethyl)-1H-pyrrolo[2,3-b]pyridin-2-yl]-7-methoxy-1H-1,3-benzodiazol-1-yl}methyl)azetidin-1-yl]pyrimidine-5-carbonitrile]
42	COc1cc(C(=O)N2CC3CCC2[C@@H]3N)cc2nc(-c3cc4ccccc4n3CC3CC3)n(Cc3cnn(-c4ccc(C(F)F)nc4)c3)c12 (stereo partly drawn) [Example 387, (7R)-2-{2-[1-(cyclopropylmethyl)-1H-indol-2-yl]-1-({1-[6-(difluoromethyl)pyridin-3-yl]-1H-pyrazol-4-yl}methyl)-7-methoxy-1H-1,3-benzodiazole-5-carbonyl}-2-azabicyclo[2.2.1]heptan-7-amine]
75	COc1cc(C(=O)N2CC3CCC2[C@@H]3N)cc2nc(-c3cc4ccccc4n3CC3CC3)n(CC3CN(C(=O)Nc4ccccc4)C3)c12 (stereo partly drawn) [Example 472, 3-({5-[(7R)-7-amino-2-azabicyclo[2.2.1]heptane-2-carbonyl]-2-[1-(cyclopropylmethyl)-1H-indol-2-yl]-7-methoxy-1H-1,3-benzodiazol-1-yl}methyl)-N-phenylazetidine-1-carboxamide]
149	COc1cc(C(=O)N2C[C@H]3CC[C@@H]2[C@@H]3N)cc2nc(-c3cc4cccnc4n3CC3CC3)n(C3CN(c4cncc(C#N)c4)C3)c12 [Example 73, 5-(3-{5-[(1R,4R,7R)-7-amino-2-azabicyclo[2.2.1]heptane-2-carbonyl]-2-[1-(cyclopropylmethyl)-1H-pyrrolo[2,3-b]pyridin-2-yl]-7-methoxy-1H-1,3-benzodiazol-1-yl}azetidin-1-yl)pyridine-3-carbonitrile]
925	COC(=O)NCCn1c(-c2cc3cccnc3n2CC2CC2)nc2cc(C(=O)N3C[C@H]4CC[C@@H]3[C@@H]4N)cc(OC)c21 [Example 284, methyl N-(2-{5-[(1R,4R,7R)-7-amino-2-azabicyclo[2.2.1]heptane-2-carbonyl]-2-[1-(cyclopropylmethyl)-1H-pyrrolo[2,3-b]pyridin-2-yl]-7-methoxy-1H-1,3-benzodiazol-1-yl}ethyl)carbamate]
2280	COc1cc(C(=O)N2C[C@H]3CC[C@@H]2[C@@H]3N)cc2nc(-c3cc4ccc(Cl)cc4n3CC3CC3)n(CC3CN(c4cncc(C#N)c4)C3)c12 [Example 87, 5-[3-({5-[(1R,4R,7R)-7-amino-2-azabicyclo[2.2.1]heptane-2-carbonyl]-2-[6-chloro-1-(cyclopropylmethyl)-1H-indol-2-yl]-7-methoxy-1H-1,3-benzodiazol-1-yl}methyl)azetidin-1-yl]pyridine-3-carbonitrile]
222	COc1cc(C(=O)N2CC3CCC2[C@@H]3N)cc2nc(-c3cc4cccnc4n3CC3CC3)n(CC3CN(S(=O)(=O)c4cccc(F)c4)C3)c12 (stereo partly shown) [Example 333]
37	COc1cc(C(=O)N2CC3CCC2[C@@H]3N)cc2nc(-c3cc4cccnc4n3CC3CC3)n(Cc3cnn(-c4ccc[n+]([O-])c4)c3)c12 (stereo partly drawn) [Example 377, 3-[4-({5-[(7R)-7-amino-2-azabicyclo[2.2.1]heptane-2-carbonyl]-2-[1-(cyclopropylmethyl)-1H-pyrrolo[2,3-b]pyridin-2-yl]-7-methoxy-1H-1,3-benzodiazol-1-yl}methyl)-1H-pyrazol-1-yl]pyridin-1-ium-1-olate]
117	COc1cc(C(=O)N2C[C@H]3CC[C@@H]2[C@@H]3N)cc2nc(-c3cc4cccnc4n3CC3CC3)n(C3CN(C(=O)c4ccncn4)C3)c12 [Example 100, (1R,4R,7R)-2-{2-[1-(cyclopropylmethyl)-1H-pyrrolo[2,3-b]pyridin-2-yl]-7-methoxy-1-[1-(pyrimidine-4-carbonyl)azetidin-3-yl]-1H-1,3-benzodiazole-5-carbonyl}-2-azabicyclo[2.2.1]heptan-7-amine]
11	COc1cc(C(=O)N2CC(Cn3c(-c4cc5ccccc5n4CC4CC4)nc4cc(C(=O)N5CC6CCC5[C@@H]6N)cc(OC)c43)C2)ccn1 (stereo partly drawn) [Example 417, (7R)-2-{2-[1-(cyclopropylmethyl)-1H-indol-2-yl]-7-methoxy-1-{[1-(2-methoxypyridine-4-carbonyl)azetidin-3-yl]methyl}-1H-1,3-benzodiazole-5-carbonyl}-2-azabicyclo[2.2.1]heptan-7-amine]
80	COc1cc(C(=O)N2C[C@H](N)CC[C@@H]2C)cc2nc(-c3cc4ccccc4n3CC3CC3)n(CC3CN(C(=O)c4ccc(C#N)cc4)C3)c12 [Example 176, 4-[3-({5-[(2S,5R)-5-amino-2-methylpiperidine-1-carbonyl]-2-[1-(cyclopropylmethyl)-1H-indol-2-yl]-7-methoxy-1H-1,3-benzodiazol-1-yl}methyl)azetidine-1-carbonyl]benzonitrile]
47	COc1cc(C(=O)N2C[C@H]3CC[C@@H]2[C@@H]3N)cc2nc(-c3cc4cccnc4n3CC3CC3)n(C[C@H]3CCN(c4cncnc4C#N)C3)c12 [Example 206, 5-[(3S)-3-({5-[(1R,4R,7R)-7-amino-2-azabicyclo[2.2.1]heptane-2-carbonyl]-2-[1-(cyclopropylmethyl)-1H-pyrrolo[2,3-b]pyridin-2-yl]-7-methoxy-1H-1,3-benzodiazol-1-yl}methyl)pyrrolidin-1-yl]pyrimidine-4-carbonitrile]
403	COc1cc(C(=O)N2CC3CCC2[C@@H]3N)cc2nc(-c3cccn3CC3CC3)n(CC3CN(c4cncc(C#N)n4)C3)c12 (stereo partly drawn) [Example 313, 6-[3-({5-[(1R,4R,7R)-7-amino-2 azabicyclo[2.2.1]heptane-2-carbonyl]-2-[1-(cyclopropylmethyl)-1H-pyrro1-2-yl]-7-methoxy-1H-1,3-benzodiazol-1-yl}methyl)azetidin-1-yl]pyrazine-2-carbonitrile]
11	COc1cc(C(=O)N2C[C@H]3CC[C@@H]2[C@@H]3N)cc2nc(-c3cc4ccccc4n3CC3CC3)n(CC3CN(C(=O)c4cccc(C(=O)O)c4)C3)c12 [Example 137, 3-[3-({5-[(1R,4R,7R)-7-amino-2-azabicyclo[2.2.1]heptane-2-carbonyl]-2-[1-(cyclopropylmethyl)-1H-indol-2-yl]-7-methoxy-1H-1,3-benzodiazol-1-yl}methyl)azetidine-1-carbonyl]benzoic acid]
2540	COc1cc(C(=O)N2C[C@H]3CC[C@@H]2[C@@H]3N)cc2nc(-c3cc4cccnc4n3CC3CC3)n(C3CCN(C(=O)c4ccnc(F)c4)CC3)c12 [Example 241, (1R,4R,7R)-2-{2-[1-(cyclopropylmethyl)-1H-pyrrolo[2,3-b]pyridin-2-yl]-1-[1-(2-fluoropyridine-4-carbonyl)piperidin-4-yl]-7-methoxy-1H-1,3-benzodiazole-5-carbonyl}-2-azabicyclo[2.2.1]heptan-7-amine]
84	N[C@@H]1C2CCC1N(C(=O)c1cc(F)c3c(c1)nc(-c1cc4cccnc4n1CC1CC1)n3CC1CN(C(=O)c3ccncc3)C1)C2 (stereo partly drawn) [Example 466, (7R)-2-{2-[1-(cyclopropylmethyl)-1H-pyrrolo[2,3-b]pyridin-2-yl]-7-fluoro-1-{[1-(pyridine-4-carbonyl)azetidin-3-yl]methyl}-1H-1,3-benzodiazole-5-carbonyl}-2-azabicyclo[2.2.1]heptan-7-amine]
1000	COC(=O)N[C@H]1C[C@@H](n2c(-c3cc4cccnc4n3CC3CC3)nc3cc(C(=O)N4CC5CCC4[C@@H]5N)cc(OC)c32)C1 (stereo partly drawn) [Example 301, methyl N-[(1s,3s)-3-{5-[(1R,4R,7R)-7-amino-2-azabicyclo[2.2.1]heptane-2-carbonyl]-2-[1-(cyclopropylmethyl)-1H-pyrrolo[2,3-b]pyridin-2-yl]-7-methoxy-1H-1,3-benzodiazol-1-yl}cyclobutyl]carbamate]
25	COc1cc(C(=O)N2CC3CCC2[C@@H]3N)cc2nc(-c3cc4ccccc4n3CC3CC3)n(Cc3cnn(-c4ccnc(N)c4)c3)c12 (stereo partly drawn) [Example 361, (7R)-2-(1-{[1-(2-aminopyridin-4-yl)-1H-pyrazol-4-yl]methyl}-2-[1-(cyclopropylmethyl)-1H-indol-2-yl]-7-methoxy-1H-1,3-benzodiazole-5-carbonyl)-2-azabicyclo[2.2.1]heptan-7-amine]
97	COc1cc(C(=O)N2C[C@H](N)C[C@@H](F)C2)cc2nc(-c3cc4cccnc4n3CC3CC3)n(Cc3cnn(-c4cccn(C)c4=O)c3)c12 [Example 347, 3-[4-({5-[(3R,5R)-3-amino-5-fluoropiperidine-1-carbonyl]-2-[1-(cyclopropyimethyl)-1H-pyrrolo[2,3-b]pyridin-2-yl]-7-methoxy-1H-1,3-benzodiazol-1-yl}methyl)-1H-pyrazol-1-yl]-1-methyl-1,2-dihydropyridin-2-one]
574	COc1cc(C(=O)N2C[C@H](N)C[C@@H](F)C2)cc2nc(-c3cc4cccnc4n3CC3CC3)n(Cc3ccn(C)n3)c12 [Example 516, (3R,5R)-1-{2-[1-(cyclopropylmethyl)-1H-pyrrolo[2,3-b]pyridin-2-yl]-7-methoxy-1-[(1-methyl-1H-pyrazol-3-yl)methyl]-1H-1,3-benzodiazole-5-carbonyl}-5-fluoropiperidin-3-amine]
2720	COc1cc(C(=O)N2C[C@H]3CC[C@@H]2[C@@H]3N)cc2nc(-c3cc4cccnc4n3CC3CC3)n(C3CN(C(=O)c4ccnc(F)c4)C3)c12 [Example 193, (1R,4R,7R)-2-{2-[1-(cyclopropylmethyl)-1H-pyrrolo[2,3-b]pyridin-2-yl]-1-[1-(2-fluoropyridine-4-carbonyl)azetidin-3-yl]-7-methoxy-1H-1,3-benzodiazole-5-carbonyl}-2-azabicyclo[2.2.1]heptan-7-amine]
